Measurements: patent US8198307B2, “Imidazole derivatives having aryl piperidine substituent, method for preparation thereof and pharmaceutical compositions containing same” (Korea Research Institute of Chemical Technology, priority 2007, dated 2012)

Target: T1, MCH R1 (melanine-concentrating hormone receptor-1) (Homo sapiens, UniProt Q99705)
T1 construct: purchased Euroscreen, Gosselies, Belgium
Assay: Inhibitory effects on MCH R1 binding (Eu-MCH time-resolved fluorescence binding assay)
Conditions: concentration inhibiting the binding of MCH (Eu-MCH, 2 nM) to MCH R1 by 50% in vitro; TRF readout; test range 1 nM to 10 μM; read-out: IC50
Summary of the method: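 Receptor membranes were incubated 90 min at room temperature with 2 nM Eu-MCH and test compound (1 nM–10 μM final) in 25 mM HEPES pH 7.4, 5 mM MgCl2, 1 mM CaCl2, 0.5% BSA, then filter-washed. Nonspecific binding was defined with 0.5 μM MCH. Time-resolved fluorescence (ex 340/em 615 nm) gave percent inhibition of specific binding.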

T1 sequence (Q99705 whole entry, species assumed): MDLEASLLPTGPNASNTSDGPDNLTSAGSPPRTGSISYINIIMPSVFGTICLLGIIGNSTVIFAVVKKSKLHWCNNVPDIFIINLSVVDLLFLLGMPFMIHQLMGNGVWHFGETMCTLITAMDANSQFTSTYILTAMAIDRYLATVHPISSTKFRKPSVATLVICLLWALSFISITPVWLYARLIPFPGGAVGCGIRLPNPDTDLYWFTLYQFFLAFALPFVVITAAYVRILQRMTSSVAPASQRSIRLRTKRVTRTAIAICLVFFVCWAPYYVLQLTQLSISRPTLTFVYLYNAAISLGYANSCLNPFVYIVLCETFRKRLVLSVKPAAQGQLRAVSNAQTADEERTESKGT

Structure (SMILES)	IC50 [nM]
CC(=O)Nc1cccc(C2CCN(CCCn3c(-c4cccn4C)nc4ccccc43)CC2)c1 [Example 111, 2-(1-methylpyrrol-2-yl)-1-{3-[4-(3-acetylaminophenyl)piperidin-1-yl]propyl}-1H-benzimidazole]	9
CC(=O)Nc1cccc(C2CCN(CCCn3c(-c4cncc(Br)c4)nc4ccccc43)CC2)c1 [Example 112, 2-(5-bromopyridin-3-yl)-1-{3-[4-(3-acetylaminophenyl)piperidin-1-yl]propyl}-1H-benzimidazole]	5
CC(=O)Nc1cccc(C2CCN(CCCn3c(-c4ccc(C)nc4)nc4ccccc43)CC2)c1 [Example 114, 2-(6-methylpyridin-3-yl)-1-{3-[4-(3-acetamidophenyl)piperidin-1-yl]propyl}-1H-benzimidazole]	42
COc1ncccc1-c1nc2ccccc2n1CCCN1CCC(c2cccc(NC(C)=O)c2)CC1 [Example 115, 2-(2-methoxypyridin-3-yl)-1-{3-[4-(3-acetamidophenyl)piperidin-1-yl]propyl}-1H-benzimidazole]	67
CC(=O)Nc1cccc(C2CCN(CCCn3c(-c4cccnc4)nc4cc(Cl)ccc43)CC2)c1 [Example 116, 5-chloro-2-(pyridin-3-yl)-1-{3-[4-(3-acetamidophenyl)piperidin-1-yl]propyl}-1H-benzimidazole]	48
CC(=O)Nc1cccc(C2CCN(CCCn3c(-c4cccnc4)nc4cc([N+](=O)[O-])ccc43)CC2)c1 [Example 117, 5-nitro-2-(pyridin-3-yl)-1-{3-[4-(3-acetamidophenyl)piperidin-1-yl]propyl}-1H-benzimidazole]	3
CC(=O)Nc1cccc(C2CCN(CCCn3c(-c4ccc(Br)o4)nc4cc(Cl)ccc43)CC2)c1 [Example 118, 5-chloro-2-(5-bromofuran-2-yl)-1-{3-[4-(3-acetamidophenyl)piperidin-1-yl]propyl}-1H-benzimidazole]	20
COc1ccc2c(c1)nc(-c1ccco1)n2CCCN1CCC(c2cccc(NC(C)=O)c2)CC1 [Example 119, 2-(furan-2-yl)-5-methoxy-1-{3-[4-(3-acetamidophenyl)piperidin-1-yl]propyl}-1H-benzimidazole]	249
CC(=O)Nc1cccc(C2CCN(CCCn3c(-c4ccsc4)nc4cc(C)ccc43)CC2)c1 [Example 120, 5-methyl-2-(thiophen-3-yl)-1-{3-[4-(3-acetamidophenyl)piperidin-1-yl]propyl}-1H-benzimidazole]	1
CC(=O)Nc1cccc(C2CCN(CCCn3c(-c4cccn4C)nc4cc(C)c(C)cc43)CC2)c1 [Example 121, 5,6-dimethyl-2-(1-methylpyrrol-2-yl)-1-{3-[4-(3-acetamidophenyl)piperidin-1-yl]propyl}-1H-benzimidazole]	5
CC(=O)Nc1cccc(C2CCN(CCCn3c(Cc4ccccn4)nc4ccccc43)CC2)c1 [Example 125, 2-(pyridin-2-ylmethyl)-1-{3-[4-(3-acetamidophenyl)piperidin-1-yl]propyl}-1H-benzimidazole]	2
CC(=O)Nc1cccc(C2CCN(CCCn3c(Cc4cccnc4)nc4ccccc43)CC2)c1 [Example 126, 2-(pyridin-3-ylmethyl)-1-{3-[4-(3-acetamidophenyl)piperidin-1-yl]propyl}-1H-benzimidazole]	47
CC(=O)Nc1cccc(C2CCN(CCCn3c(CCc4cccnc4)nc4ccccc43)CC2)c1 [Example 127, 2-[2-(pyridin-3-yl)ethyl]-1-{3-[4-(3-acetamidophenyl)piperidin-1-yl]propyl}-1H-benzimidazole]	1

Results, then the compound that gave them:

IC50 [nM]	Structure (SMILES)
3	CC(=O)Nc1cccc(C2CCN(CCCn3c(-c4ccc(Br)o4)nc4ccccc43)CC2)c1 [Example 108, 2-(5-bromofuran-2-yl)-1-{3-[4-(3-acetylaminophenyl)piperidin-1-yl]propyl}-1H-benzimidazole]
15	CC(=O)Nc1cccc(C2CCN(CCCn3c(-c4cccs4)nc4ccccc43)CC2)c1 [Example 109, 2-(thiophen-2-yl)-1-{3-[4-(3-acetylaminophenyl)piperidin-1-yl]propyl}-1H-benzimidazole]
14	CC(=O)Nc1cccc(C2CCN(CCCn3c(-c4ccc(C)s4)nc4ccccc43)CC2)c1 [Example 110, 2-(5-methylthiophen-2-yl)-1-{3-[4-(3-acetylaminophenyl)piperidin-1-yl]propyl}-1H-benzimidazole]
1	CC(=O)Nc1cccc(C2CCN(CCCn3c(-c4ccc(Cl)nc4)nc4ccccc43)CC2)c1 [Example 113, 2-(6-chloropyridin-3-yl)-1-{3-[4-(3-acetamidophenyl)piperidin-1-yl]propyl}-1H-benzimidazole]
306	CC(=O)Nc1cccc(C2CCN(CCCn3c(-c4cscn4)nc4ccccc43)CC2)c1 [Example 122, 2-(thiazol-4-yl)-1-{3-[4-(3-acetamidophenyl)piperidin-1-yl]propyl}-1H-benzimidazole]
3	CC(=O)Nc1cccc(C2CCN(CCCn3c(-c4ocnc4C)nc4ccccc43)CC2)c1 [Example 123, 2-(4-methyloxazol-5-yl)-1-{3-[4-(3-acetamidophenyl)piperidin-1-yl]propyl}-1H-benzimidazole]
